Data published in patent US20050159359A1, “Methods and compositions for derepression of IAP-inhibited caspase” (The Burnham Institute, priority 2001, published 2005).
Values belong to the compound of their own block, whether it stands above or below them. Where no end group is shown, it is not given here. [ ]: non-standard residue; d: D form. The star is where a group is joined. Phe(4-Cl) = N[C@@H](Cc1ccc(Cl)cc1)C(=O)O; dPhe(4-Cl) = N[C@H](Cc1ccc(Cl)cc1)C(=O)O; dPhe(4-F) = N[C@H](Cc1ccc(F)cc1)C(=O)O; 2Nal = N[C@@H](Cc1ccc2ccccc2c1)C(=O)O; d2Nal = N[C@H](Cc1ccc2ccccc2c1)C(=O)O; Fmoc = O=C(OCC1c2ccccc2-c2ccccc21)*; 2Thi = N[C@@H](Cc1cccs1)C(=O)O

Assays:
[1] = target: XIAP-inhibited caspase-3 (Homo sapiens, UniProt P98170); assay: IAP derepression assay: Ac-DEVD-AFC hydrolysis by caspase-3 in presence of GST-XIAP; assay type: biochemical; details: tested at 0.4, 2, 10 and 50 micrograms per milliliter
Sequence of XIAP-inhibited caspase-3 (P98170 whole entry): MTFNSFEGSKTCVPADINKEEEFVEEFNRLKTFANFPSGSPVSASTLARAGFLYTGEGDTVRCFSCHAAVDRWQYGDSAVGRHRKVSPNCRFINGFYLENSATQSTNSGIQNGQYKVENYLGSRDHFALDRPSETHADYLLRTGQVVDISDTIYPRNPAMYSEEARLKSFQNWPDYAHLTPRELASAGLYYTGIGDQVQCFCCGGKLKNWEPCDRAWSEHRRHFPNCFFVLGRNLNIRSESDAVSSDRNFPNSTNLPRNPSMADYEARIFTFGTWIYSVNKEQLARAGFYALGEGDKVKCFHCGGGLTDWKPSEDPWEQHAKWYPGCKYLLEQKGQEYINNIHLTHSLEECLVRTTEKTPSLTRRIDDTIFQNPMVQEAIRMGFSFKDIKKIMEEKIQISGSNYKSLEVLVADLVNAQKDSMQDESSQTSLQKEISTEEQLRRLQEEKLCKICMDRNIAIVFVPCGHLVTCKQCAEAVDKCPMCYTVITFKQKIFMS
Method: Caspase activity was assayed by release of −7-amino-4-trifluoromethyl-coumarin (AFC) from Ac-DEVD-AFC synthetic peptides using a Molecular Devices Spectromax 340 (see Zhou et al., J. Biol. Chem. 272: 7797-7800 (1997)). […] The ratio of Vmax for hydrolysis of Ac-DEVD-AFC in the presence and absence of the candidate mixture was calculated and used to identify those that contain an agent that derepresses an IAP-inhibited caspase.
Screening of each mixture from the DCR390, TPI1239 or TPI1328 library, respectively, using the above described assay was carried out as follows. Each mixture was aliquoted in a 25 microliter volume and in duplicate to a well of a 96 well microtiter plate. […] Fluorescence of liberated AFC was immediately detected from each well for 30 minutes at 30 second intervals. The Vmax for hydrolysis of AC-DEVD-AFC from each well was measured using the softmax software package.

[2] = test system: normal bone marrow mononuclear cells; assay: Toxicity to normal bone marrow mononuclear cells, Annexin V flow cytometry; assay type: cell-based; details: same culture conditions as Jurkat killing; 5 μM, 20 hours
Method: A comparison of the effects of TPI1396-34 on normal bone marrow cells versus Jurkat leukemia cells was performed as follows. TPI1396-34 (5 μM) was incubated with Jurkat cells or normal bone marrow mononuclear cells (6.25×10^5/mL) in RPMI and 2.5% FBS for 20 hours. After incubation, cells were washed, stained with FITC-conjugated Annexin V antibody and propidium iodide, and fluorescence measured by flow cytometry as described above.

[3] = target: full length XIAP (Homo sapiens, UniProt P98170); assay: SMAC competition assay: rhodamine labeled SMAC tetrapeptide AVPI and full length XIAP; details: for Relative Potency: fold relative to SMAC AVPI tetrapeptide; for EC50: amount of compound necessary to restore Caspase-3 activity to 50% of Vmax
Sequence of full length XIAP (P98170 whole entry): as above

[4] = target: caspase-3 and -7; details: read-out: Ki for inhibition of caspase-3 and -7; reported; cited from earlier work
[5] = test system: ALVA31 prostate cancer cells; assay: ALVA31 cell viability (XTT dye-reduction and trypan blue dye exclusion); assay type: cell-based; details: IAP antagonist 40 μM or VP-16 100 μM, 24 hrs
Method: The in vivo effects of TPI792-33 or TPI792-35, either individually or in combination with the cytotoxic anticancer drug VP-16 (etoposide), on derepression of XIAP-inhibited caspase and viability of ALVA31 cells was determined as follows. ALVA31 prostate cancer cells were seeded onto 96 well plates (10^4 cells/well) in 100 μL RPMI containing 2.5% fetal bovine serum (FBS). […] After another 24 hrs incubation, cell viability was measured by the XTT dye-reduction assay (Roche, Molecular Biochemicals; Indianapolis, Ind.) and trypan blue dye exclusion assay.

[6] = test system: HeLa cells; assay: Apoptosis in HeLa cells transfected with XIAP, XIAP mutants or Bcl-XL, Annexin V; assay type: cell-based; details: 5 μM, 20 hours
Method: In addition to transfecting the cells with full-length XIAP, analogous assays were performed with HeLa cells transfected with plasmids over-expressing various XIAP mutants. […] The mutant was produced by site-directed mutagenesis to modify positions 148, 219, 223, 314 and 323 to contain alanine. HeLa cells were also transiently transfected with plasmids encoding Bcl-XL, an anti-apoptotic protein that operates upstream of Caspases to suppress Cytochrome C release from mitochondria. HeLa cells (2.5×10^5) were seeded onto six well plates in 2 mL DMEM H21 with 5% FBS. After 24 hrs, cells were transfected (Gene Porter) with plasmids. At 48 hrs after transfection, cells were treated with 5 μM of TPI1396-34 for 20 hours. Both floating and adherent cells were then recovered from cultures, washed, and apoptosis was determined by Annexin V staining using flow cytometry.

[7] = test system: U937 leukemia cells (U937-Neo, U937-XIAP); assay: Apoptosis in U937 cells transfected with Neo-control or XIAP plasmid; assay type: cell-based; details: U937-XIAP vs U937-Neo, 5 or 8 μM, 20 hours
Method: After incubation, cells were washed, stained with FITC-conjugated Annexin V antibody and propidium iodide, and fluorescence measured by flow cytometry as described in Example X.

[8] = Jurkat cell killing, Annexin V / propidium iodide flow cytometry; assay type: cell-based; details: human
Method: The following assay was used to test the ability of individual compounds from the TPI1396 and TPI1391 libraries to induce apoptosis of cultured tumor cell lines. Each of the compounds listed in Table IX was individually added to Jurkat leukemia cells (6.25×10^5 cells/mL) in RPMI containing 2.5% FBS at various concentrations for 20 hours. After incubation, cells were washed and stained with FITC-conjugated Annexin V antibody and propidium iodide (Biovision; Mountain View, Calif.). Cells were incubated for 20 minutes at room temperature in the dark and fluorescence was measured by flow cytometry (FACScan, Immunocytometry system; Becton-Dickinson; San Jose, Calif.). Cells staining positive for Annexin V were deemed non-viable.
The TPI1396-34 and TPI1391-28 compounds were further tested as set forth below.

LC (lowest concentration with a ratio of 2 or higher in the derepression assay) [1]: 2 µg/mL
Compound: (L-ThiAla)-(D-pClPhe)-(L-pClPhe)-(Lys-εFmoc) ([2Thi][dPhe(4-Cl)][Phe(4-Cl)]K(Fmoc)) [TPI792-27]

Relative Potency [3]: 4.8
Compound: CC(C)C[C@@H]1CN([C@H](CNCc2ccccc2)Cc2ccc3ccccc3c2)C(=O)C(=O)N1CCc1cccc(C(F)(F)F)c1 [TPI1391-28]
toxicity to normal bone marrow cells [2]: little toxicity

LC (lowest concentration with a ratio of 2 or higher in the derepression assay) [1]: 2 µg/mL
Compound: (D-Nal)-(Lys-εFmoc)-(L-pClPhe)-(Lys-εFmoc) ([d2Nal]K(Fmoc)[Phe(4-Cl)]K(Fmoc); not fully specified; printed as (D-Nal)-(Lys-εFmoc)-(L-pClPhe)-(Lys-εFmoc)) [TPI792-3]

LC (lowest concentration with a ratio of 2 or higher in the derepression assay) [1]: 2 µg/mL
Compound: (L-ThiAla)-(Lys-εFmoc)-(D-Nal)-(Lys-εFmoc) ([2Thi]K(Fmoc)[d2Nal]K(Fmoc)) [TPI792-19]

Compound: cIAP2: cellular IAP protein, human inhibitor of apoptosis protein
Ki [4]: 0.0002 to 0.01 µM

Compound: COc1cc([C@@H]2c3cc4c(cc3[C@@H](O[C@@H]3O[C@@H]5CO[C@@H](C)O[C@H]5[C@H](O)[C@H]3O)[C@H]3COC(=O)[C@H]23)OCO4)cc(OC)c1O [VP-16, etoposide]
effect on viability of ALVA31 cells, agent alone [5]: essentially no effect

EC50 [3]: 33 µM
Compound: COc1ccc(CCN2CCC[C@@H]2CN(C(=O)Nc2ccccc2)[C@@H](CNC(=O)Nc2ccccc2)CC2CCCCC2)cc1 [TPI1396-34]
apoptosis ([6]; HeLa expressing XIAP mutant with mutated SMAC-binding pocket): not protected | apoptosis ([6]; HeLa expressing mutant of only the BIR2 domain): not protected | apoptosis ([6]; HeLa expressing the BIR3 domain): protected | apoptosis ([6]; HeLa over-expressing Bcl-XL): not blocked | apoptosis ([6]; HeLa over-expressing full-length XIAP): protected | apoptosis ([6]; HeLa transfected with control vector): induced apoptosis | toxicity to normal bone marrow cells [2]: little toxicity | effect of XIAP over-expression on apoptosis induction [7]: resistant

EC50 [3]: 37 µM | Relative Potency [3]: 3.4
Compound: CCCCCCCN1C(=O)C(=O)N([C@H](CCCC)CNCc2ccccc2)C[C@@H]1Cc1ccc2ccccc2c1 [TPI1391-21]

Compound: H-AVPIAQK-NH2 [SMAC, H-Ala-Val-Pro-Ile-Ala-Gln-Lys-NH2]
percent nonviable cells at 20 hours, 50 µM ([8]; 50 μM): ~16% | percent nonviable cells at 20 hours, 100 µM ([8]; 100 μM): 15%

LC (lowest concentration with a ratio of 2 or higher in the derepression assay) [1]: 2 µg/mL
Compound: (L-ThiAla)-(Lys-εFmoc)-(L-pClPhe)-(pF-D-F) ([2Thi]K(Fmoc)[Phe(4-Cl)][dPhe(4-F)]) [TPI792-22]

LC (lowest concentration with a ratio of 2 or higher in the derepression assay) [1]: 10 µg/mL
Compound: (D-Nal)-(D-pClPhe)-(L-pClPhe)-(Lys-εFmoc) ([d2Nal][dPhe(4-Cl)][Phe(4-Cl)]K(Fmoc)) [TPI792-9]

LC (lowest concentration with a ratio of 2 or higher in the derepression assay) [1]: 2 µg/mL
Compound: (D-Nal)-(L-Nal)-(D-Lys-εFmoc)-(Lys-εFmoc) ([d2Nal][2Nal][dK](Fmoc)K(Fmoc)) [TPI792-17]

LC (lowest concentration with a ratio of 2 or higher in the derepression assay) [1]: 2 µg/mL
Compound: (D-Nal)-(L-Nal)-(L-pClPhe)-(Lys-εFmoc) ([d2Nal][2Nal][Phe(4-Cl)]K(Fmoc); also: 4: D-Lys-εFmoc in Table V) [TPI792-15]
